Here are results for one compound from US12642771B2, “Compositions comprising PGI2-receptor agonists and processes for the preparation thereof” (Arena Pharmaceuticals, Inc., priority 2017, dated 2026).

Data set [1] is described as follows: Release (dissolution) profile of modified-release tablets, USP Apparatus 1 (baskets) at 100 rpm, 500 mL aqueous sodium phosphate 0.05 M, pH 6.8. The data set is classed as physicochemical. The source says:
USP Apparatus 1 (BASKETS) is described, for example, in the United States Pharmacopeial Convention, Feb. 1, 2012, Chapter <711> (“Dissolution”), incorporated by reference herein in its entirety. See http://www.usp.org/sites/default/files/usp_pdf/EN/USPNF/revisions/m99470-gc_711.pdf. The USP Apparatus 1 (baskets) assembly consists of the following: a vessel, which may be covered, made of glass or other inert, transparent material; a motor; a metallic drive shaft, and a cylindrical basket. The materials should not sorb, react, or interfere with the specimen being tested. The vessel is partially immersed in a suitable water bath of any convenient size or heated by a suitable device such as a heating jacket. The water bath or heating device permits holding the temperature inside the vessel at 37±0.5° during the test and keeping the bath fluid in constant, smooth motion. No part of the assembly, including the environment in which the assembly is placed, contributes significant motion, agitation, or vibration beyond that due to the smoothly rotating stirring element. An apparatus that permits observation of the specimen and stirring element during the test is preferable. The vessel is cylindrical, with a hemispherical bottom and with one of the following dimensions and capacities: for a nominal capacity of 1 L, the height is 160 mm to 210 mm and its inside diameter is 98 mm to 106 mm; for a nominal capacity of 2 L, the height is 280 mm to 300 mm and its inside diameter is 98 mm to 106 mm; and for a nominal capacity of 4 L, the height is 280 mm to 300 mm and its inside diameter is 145 mm to 155 mm. Its sides are flanged at the top. A fitted cover may be used to retard evaporation. If a cover is used, it provides sufficient openings to allow ready insertion of the thermometer and withdrawal of specimens. The shaft is positioned so that its axis is not more than 2 mm at any point from the vertical axis of the vessel and rotates smoothly and without significant wobble that could affect the results. The vertical center line of the blade passes through the axis of the shaft so that the bottom of the blade is flush with the bottom of the shaft. A distance of 25±2 mm between the bottom of the blade and the inside bottom of the vessel is maintained during the test. The metallic or suitably inert, rigid blade and shaft comprise a single entity. A suitable two-part detachable design may be used provided the assembly remains firmly engaged during the test. […]
The release profiles for modified-release tablets were measured using USP Apparatus 1 (baskets).
All release profiles disclosed in Tables 6a-6d were measured with USP Apparatus 1 (baskets) at 100 rpm in 500 mL of aqueous sodium phosphate at a concentration of 0.05 M (pH=6.8). […]

Data set [2] can be described thus: Example 7A: open-label single-dose pharmacokinetic study, modified-release tablet vs immediate-release capsule, fasted healthy subjects. The data set is classed as in vivo, human. How it is done:
A. An open-label, fixed sequence, non-randomized study in two cohorts of healthy male and non-pregnant, non-lactating female subjects was conducted. Two cohorts with twelve subjects in each were enrolled to ensure data in ten evaluable subjects per cohort.
Each subject in Cohort 1 received each of the following regimens, in the fasted state, in a sequential manner over four treatment periods: • Regimen A (0.03 mg immediate-release Compound 1): 1×0.03 mg Compound 1 immediate-release capsule. • Regimen B (0.06 mg modified-release Compound 1): 1×0.06 mg Compound 1 modified-release tablet as disclosed herein. • Regimen C (0.12 mg modified-release Compound 1): 2×0.06 mg Compound 1 modified-release tablets as disclosed herein. • Regimen D (0.18 mg modified-release Compound 1) 3×0.06 mg Compound 1 modified-release tablets as disclosed herein.
Subjects received each regimen in the morning of Day 1, following an overnight fast of a minimum of 8 hours. PK samples were taken from subjects at 72 hours post-dose. There was a minimum washout period of 7 days between each administration of investigational medicinal product (IMP) (i.e., selexipag film-coated tablet(s), Compound 1 immediate-release capsule(s), and/or Compound 1 modified-release tablet(s)).
Venous blood samples were withdrawn at regular time intervals. Plasma concentration data for Compound 1 and the selexipag parent and active metabolite were analyzed using appropriate non-compartmental techniques to obtain estimates of one or more of the following parameters:
One or more of the above pharmacokinetic parameters were determined at one or more of the following time points: pre-dose and (referring to hours after administration): 0.5, 1, 1.5, 2, 3, 4, 5, 6, 8, 10, 12, 16, 20, 24, 36, 48, and 72 hours.

Data set [3] in a line: Example 7B: open-label multiple-dose escalation pharmacokinetic study of modified-release tablet, fasted or fed healthy subjects. The data set is classed as in vivo, human. How it is done:
B. A second open-label, non-randomized pharmacokinetic study was conducted in healthy subjects. Fasted (cohort 1; n=19) or fed state (cohort 2, n=18) subjects received a modified-release tablet formulation of Compound 1 in a dose escalation sequence over 25 days (once daily dosing started at 0.06 mg and was slowly titrated, depending upon individual subject tolerability, by additional 0.06 mg dose increments every 5 days up to 0.3 mg once daily).
Each subject received a once daily dose of the modified-release Compound 1 for 5 days, with up to four sequential dose escalations every 5 days: • Regimen A (0.06 mg modified-release Compound 1): 1×0.06 mg Compound 1 modified-release tablet for 5 days • Regimen B (0.12 mg modified-release Compound 1): 2×0.06 mg Compound 1 modified-release tablet for 5 days • Regimen C (0.18 mg modified-release Compound 1): 3×0.06 mg Compound 1 modified-release tablet for 5 days • Regimen D (0.24 mg modified-release Compound 1): 4×0.06 mg Compound 1 modified-release tablet for 5 days • Regimen E (0.30 mg modified-release Compound 1): 5×0.06 mg Compound 1 modified-release tablet for 5 days

Setting [4] is: modified-release compared to immediate-release formulation.
[5] abbreviates: modified-release tablet (compared with immediate-release capsule).

As for `O=C(O)COC[C@H]1CC[C@H](COC(=O)N(c2ccccc2)c2ccc(Cl)cc2)CC1` [Compound 1, 2-(((1r,4r)-4-(((4-chlorophenyl)(phenyl)carbamoyloxy)methyl)cyclohexyl)methoxy)acetic acid], the “difference of % by weight released, initial profile vs after storage” value in data set [1] (tablets 0.05 mg and 0.5 mg Compound 1 (FIGS. 12, 13), storage at 40° C. and 75% RH for six months, any time point equal to or greater than 2 hours) is on record as ≤ 10%. Moreover, in data set [1] (tablets 0.5 mg Compound 1 with 40% HPMC K4M CR, 100 mg, 7 kP), the “release rate relative to modified-release capsule” value was “faster than that of the modified-release capsule”. In addition, the “release rate relative to modified-release capsule” value in data set [1] (tablets with 30% HPMC K4M and 20% HPMC K100 LVCR, wet granulation) is “slightly faster than that of the modified-release capsule”. Further, the “release rate relative to modified-release capsule” value in data set [1] (tablets with 40% HPMC K4M and 10% HPMC K100 LVCR, wet granulation) is “faster than that of the modified-release capsule at time points <6 hrs but slower than that of the modified-release capsule at time points 6 hrs”. The “Relative bioavailability based on individual dose-adjusted Cmax” value in data set [2] (0.06, 0.12 and 0.18 mg modified-release tablet vs immediate-release capsule) was “statistically significantly lower”. Besides, in data set [2] (0.06 and 0.12 mg modified-release tablet vs immediate-release capsule), the “Relative bioavailability based on individual dose-adjusted ratios of AUC(0-last)” value was “statistically significantly lower”. In data set [2] (setting [4]), the “Dose-adjusted peak plasma exposure (Cmax/D), geometric mean ratio” value is recorded as 28.7-41.2% and the “Dose-adjusted total plasma exposure (AUC/D), geometric mean ratio” value is given as 63.3-97.9%. Further, in data set [2] (setting [5]), the Cmax entry is recorded as “reduced the Cmax”, the Tmax entry was “increased Tmax” and the total plasma concentrations entry is on record as “substantially maintaining similar total plasma concentrations”. Besides, the “Plasma concentrations at 24 hours post-dose” value in data set [2] (modified-release tablet compared to immediate release-formulation) is listed as “higher”. Moreover, in data set [2] (oral modified-release tablet formulation), the “Systemic exposure (Cmax and AUC), dose proportionality” value was “increased in a slightly higher than dose-proportional manner”. Further, the “Exposure in the fed and fasted states” value in data set [3] (after single administration and at steady state) was “similar”. For the same compound, the “increase of Cmax at steady state, female vs male subjects” value in data set [3] (modified-release tablet) is “greater than 42%”. Moreover, the “mean plasma exposure measures, females compared to males” value in data set [3] (modified-release tablet once daily) was “Somewhat higher”. Besides, the peak-trough fluctuation result in data set [3] (modified-release tablet once daily, across dose levels) is reported as “low peak-trough fluctuation”. Also, the “Tmax, fed state” value in data set [3] (modified-release tablet, fed vs fasted) is reported as “delayed in the fed state”.
